From patent US11691974B2, “3,9-diazaspiro[5,5]undecane compound as FLT3 and AXL inhibitors” (MEDSHINE DISCOVERY INC., priority 2018, dated 2023)

Legend:
FLT3(K663Q) = target: T1, FLT3(K663Q) (Homo sapiens, UniProt P36888, K663Q); test: KINOMEscan Kd determination, FLT3 mutant; assay type: binding; conditions: ratio of Kd versus compound B
T1 sequence (P36888 27-993 K663Q): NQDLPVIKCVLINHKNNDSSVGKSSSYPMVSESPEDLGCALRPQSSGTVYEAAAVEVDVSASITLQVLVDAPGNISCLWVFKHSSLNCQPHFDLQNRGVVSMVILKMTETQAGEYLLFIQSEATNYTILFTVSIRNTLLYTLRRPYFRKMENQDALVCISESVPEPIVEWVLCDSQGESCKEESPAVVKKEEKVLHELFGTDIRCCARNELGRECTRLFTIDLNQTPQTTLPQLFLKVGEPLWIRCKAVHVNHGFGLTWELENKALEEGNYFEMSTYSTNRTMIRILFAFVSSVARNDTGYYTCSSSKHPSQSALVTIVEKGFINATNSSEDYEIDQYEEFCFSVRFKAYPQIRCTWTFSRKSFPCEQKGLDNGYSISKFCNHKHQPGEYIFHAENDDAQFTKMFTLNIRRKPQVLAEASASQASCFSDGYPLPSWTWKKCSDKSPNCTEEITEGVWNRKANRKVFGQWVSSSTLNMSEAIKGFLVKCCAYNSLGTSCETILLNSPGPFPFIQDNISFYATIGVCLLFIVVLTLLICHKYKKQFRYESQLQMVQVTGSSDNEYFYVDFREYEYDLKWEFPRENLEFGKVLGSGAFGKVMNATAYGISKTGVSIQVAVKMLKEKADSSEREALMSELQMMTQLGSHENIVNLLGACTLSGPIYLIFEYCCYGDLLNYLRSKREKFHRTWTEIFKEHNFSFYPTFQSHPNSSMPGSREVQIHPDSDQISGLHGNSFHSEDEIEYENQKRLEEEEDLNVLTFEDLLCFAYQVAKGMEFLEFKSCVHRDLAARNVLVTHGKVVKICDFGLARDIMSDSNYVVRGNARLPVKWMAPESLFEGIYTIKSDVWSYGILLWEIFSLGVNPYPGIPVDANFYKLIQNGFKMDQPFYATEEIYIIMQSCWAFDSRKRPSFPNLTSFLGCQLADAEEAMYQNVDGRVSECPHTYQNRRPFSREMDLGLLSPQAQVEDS
Description: (§1) The assay was carried out using KINOMEscan™ technology. The assay compounds were stored in 100% DMSO. The assay was carried out by means of 3-fold dilution and 11-point fitting. All compounds used for Kd determination were dispersed by ultrasound, then directly diluted and tested. All reactions were carried out in a 384-well polypropylene plate. Each portion has a final volume of 0.02 ml. The plate was incubated with shaking at room temperature for 1 hour, and then processed. The kinase concentration in the eluent was finally determined by qPCR method. Kd was obtained by fitting.

FLT3(ITD, F691L) = target: T2, FLT3(ITD, F691L) (Homo sapiens, UniProt P36888, F691L, form not given); test: KINOMEscan Kd determination, FLT3 mutant; assay type: binding; conditions: ratio of Kd versus compound B
T2 sequence (P36888 1-993 F691L): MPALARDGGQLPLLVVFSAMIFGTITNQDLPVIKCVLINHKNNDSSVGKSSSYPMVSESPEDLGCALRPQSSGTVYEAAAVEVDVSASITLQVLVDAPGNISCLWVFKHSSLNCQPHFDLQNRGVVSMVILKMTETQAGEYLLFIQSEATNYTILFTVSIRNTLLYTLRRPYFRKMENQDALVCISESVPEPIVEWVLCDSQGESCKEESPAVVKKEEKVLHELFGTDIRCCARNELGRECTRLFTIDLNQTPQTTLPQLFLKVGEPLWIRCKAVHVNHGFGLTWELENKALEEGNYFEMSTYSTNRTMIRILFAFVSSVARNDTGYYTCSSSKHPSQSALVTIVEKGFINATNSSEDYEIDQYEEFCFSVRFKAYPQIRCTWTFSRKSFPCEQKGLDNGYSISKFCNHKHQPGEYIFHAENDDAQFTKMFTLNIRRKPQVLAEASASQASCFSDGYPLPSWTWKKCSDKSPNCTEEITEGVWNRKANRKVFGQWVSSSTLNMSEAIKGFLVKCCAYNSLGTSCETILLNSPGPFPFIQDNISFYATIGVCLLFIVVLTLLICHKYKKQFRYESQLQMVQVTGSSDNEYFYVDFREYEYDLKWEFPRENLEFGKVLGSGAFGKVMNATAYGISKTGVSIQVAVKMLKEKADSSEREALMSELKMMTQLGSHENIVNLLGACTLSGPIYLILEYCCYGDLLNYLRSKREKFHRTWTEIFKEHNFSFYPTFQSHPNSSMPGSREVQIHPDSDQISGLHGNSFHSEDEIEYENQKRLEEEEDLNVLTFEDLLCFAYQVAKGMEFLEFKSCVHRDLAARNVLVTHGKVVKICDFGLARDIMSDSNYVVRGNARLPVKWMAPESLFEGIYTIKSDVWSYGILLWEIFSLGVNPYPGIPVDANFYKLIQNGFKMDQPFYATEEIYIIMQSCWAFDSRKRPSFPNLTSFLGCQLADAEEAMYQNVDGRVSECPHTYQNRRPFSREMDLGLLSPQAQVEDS
Description: as §1

In the case of `CCc1nc(C(N)=O)c(Nc2ccc(N3CCC4(CCN(C)CC4)CC3)c(C)c2)nc1NC1CCOCC1`, the “activity for FLT3 (K663Q) higher than that of compound B” value (FLT3(K663Q)) is reported as 5.9 times and the “activity for FLT3 (ITD, F691L) higher than that of compound B” value (FLT3(ITD, F691L)) is reported as 3.6 times.
